Source: patent US20220107328A1, “METHODS OF TREATING LIVER DISEASES” (Camp4 Therapeutics Corporation, priority 2018, published 2022)
Where a name gives a salt, the structure may show the parent alone.

Columns and labels:
PNPLA3 mRNA [1] = experiment: qRT-PCR of PNPLA3 mRNA in human primary hepatic stellate cells; assay type: cell-based; details: 3 μM, relative to GAPDH
PNPLA3 mRNA [2] = experiment: qRT-PCR of PNPLA3 mRNA in compound-treated primary human hepatocytes; details: for Primary Hepatocytes 4178 PNPLA3 (fold change in mRNA expression): donor 4178, 3 μM; for Primary Hepatocytes 4178 PNPLA3 (fold change in mRNA expression) / Primary Hepatocytes 4282 PNPLA3 (fold change in mRNA expression): relative to GUSB; for Primary Hepatocytes 4282 PNPLA3 (fold change in mRNA expression): donor 4282, 3 μM; for Relative PINPLA3 mRNA: hepatocytes; for PNPLA3 expression by reported compound specificity (in words): summary of mTOR/PI3K inhibitor testing
Method: Cryopreserved hepatocytes were cultured in plating media for 16 hours, transferred to maintenance media for 4 hours. Cultured on serum-free media for 2 hours, then a compound was added. The hepatocytes were maintained on the serum-free media for 16 hours prior to gene expression analysis.
Human hepatocytes cultured as described above were plated in 24-well format, adding 375,000 cells per well in a volume of 500 μl plating medium. Four hours before treatment, cells were washed with PBS and the medium was changed to either: fresh maintenance medium (complete) or modified maintenance medium.
Compound stocks were prepared at 1000× final concentration and added in a 2-step dilution to the medium to reduce risk of a compound precipitating out of solution when added to the cells, and to ensure reasonable pipetting volumes. One at a time, each compound was first diluted 10-fold in warm (about 37° C.) modified maintenance medium (initial dilution=ID), mixed by vortexing, and the ID was diluted 100-fold into the cell culture (e.g. 5.1 μl into 1 well of a 24-well plate containing 0.5 mL medium). The plate was mixed by carefully swirling and after all wells were treated and returned to the incubator overnight. If desired, separate plates/wells were treated with vehicle-only controls and/or positive controls. If using multi-well plates, controls were included on each plate. After about 18 hours, cells were harvested for further analysis, e.g., ChIP-seq, RNA-seq, ATAC-seq, etc.
Analysis of the fold changes in expression as measured by qRT-PCR were performed using the technique below. The control was DMSO, and the treatment was the selected compound (CPD). The internal control was GAPDH or B-Actin (or otherwise indicated), and the gene of interest is the target. First, the averages of the 4 conditions were calculated for normalization: DMSO:GAPDH, DMSO:Target, CPD: GAPDH, and CPD:Target. Next, the ΔCT of both control and treatment were calculated to normalize to internal control (GAPDH) using (DMSO:Target)−(DMSO:GAPDH)=ΔCT control and (CPD:Target)−(CPD: GAPDH)=ΔCT experimental. Then, the ΔΔCT was calculated by ΔCT experimental−ΔCT control. The Expression Fold Change (or Relative Quantification, abbreviated as RQ) was calculated by 2−(ΔΔCT) (2-fold expression change was shown by RNA-Seq results provided herein).
The aim of the validation studies was to test the identified compounds from key pathways, and expand the compound franchise to identify other potential hits. Candidate compounds were subjected to validation with qRT-PCR in human hepatocytes. qRT-PCR was performed on samples of primary human hepatocytes from a second donor treated with the candidate compounds. Compounds were tested at concentrations ranging from 0.01 μM to 50 μM, with the majority tested at 10 μM.
Primary human hepatocytes and stellate cells were also incubated with inhibitors of the TGFβ pathway and PNPLA3 gene expression changes assessed via qRT-PCR as previously described. In addition, primary hepatocytes and stellate cells were treated with TGFβ-ligand alone or with selected the small molecule inhibitors for 18 hours and subsequently harvested. for gene expression assays.
The other set was harvest for mRNA processing as previously described.

PCSK9 mRNA = experiment: qRT-PCR of PCSK9 mRNA in primary hepatocytes; assay type: cell-based, human; details: donor 4178, 3 μM, relative to GUSB
COL1A1 mRNA = experiment: qRT-PCR of COL1A1 mRNA in human primary hepatic stellate cells; assay type: cell-based; details: 3 μM, relative to GAPDH
PNPLA3 mRNA [3] = experiment: qRT-PCR of PNPLA3 mRNA in compound-treated mouse hepatocytes; assay type: cell-based; details: mouse hepatocytes, 1 μM, normalized to ACTB

Primary Hepatocytes 4178 PNPLA3 (fold change in mRNA expression) (PNPLA3 mRNA [2]) | Primary Hepatocytes 4282 PNPLA3 (fold change in mRNA expression) (PNPLA3 mRNA [2]) | Primary Hepatocytes 4178 PCSK9 (fold change in mRNA expression) (PCSK9 mRNA) | SMILES | Primary Stellate cells PNPLA3 (fold change in mRNA expression) (PNPLA3 mRNA [1]) | Primary Stellate cells COL1A1 (fold change in mRNA expression) (COL1A1 mRNA) | further results
0.32 | 0.46 | 0.31 | Cc1c(CN2CCN(C(=O)[C@H](C)O)CC2)sc2c(N3CCOCC3)nc(-c3cnc(N)nc3)nc12 [Apitolisib (GDC-0980, RG7422)] | 0.56 | 0.54 | –
– | – | – | Cc1c(CN2CCN(C(=O)[C@H](C)O)CC2)sc2c(N3CCOCC3)nc(-c3cnc(N)nc3)nc12 [Apitolisib] | – | – | Primary Stellate cells PNPLA3 (fold change in mRNA expression) (PNPLA3 mRNA [1]; listed as GDC-0980): 0.67; Primary Hepatocytes 4178 PNPLA3 (fold change in mRNA expression) (PNPLA3 mRNA [2]; listed as GDC-0980): 0.37; Primary Hepatocytes 4282 PNPLA3 (fold change in mRNA expression) (PNPLA3 mRNA [2]; listed as GDC-0980): 0.40; Relative PINPLA3 mRNA (PNPLA3 mRNA [2]; 0.1 uM): 0.893; Relative PINPLA3 mRNA (PNPLA3 mRNA [2]; 0.3 uM): 0.669; Relative PINPLA3 mRNA (PNPLA3 mRNA [2]; 1 uM): 0.420; Relative PINPLA3 mRNA (PNPLA3 mRNA [2]; 3 uM): 0.365; PNPLA3 expression by reported compound specificity (in words) (PNPLA3 mRNA [2]): most robust PNPLA3 inhibition; Primary Hepatocytes 4178 PCSK9 (fold change in mRNA expression) (PCSK9 mRNA; listed as GDC-0980): 0.40; Primary Stellate cells COL1A1 (fold change in mRNA expression) (COL1A1 mRNA; listed as GDC-0980): 0.61
0.69 | 0.60 | 0.71 | Cc1nc(NC(=O)N2CCC[C@H]2C(N)=O)sc1-c1ccnc(C(C)(C)C(F)(F)F)c1 [BYL-719] | 0.70 | 1.24 | –
0.52 | 0.60 | 0.46 | Nc1cc(C(F)(F)F)c(-c2cc(N3CCOCC3)nc(N3CCOCC3)n2)cn1 [Buparlisib (BKN120, NVE-BKM120)] | 0.50 | 0.81 | –
0.51 | 0.80 | 0.72 | CO[C@H]1CC[C@H](N2C(=O)CNc3ncc(-c4ccc(C(C)(C)O)nc4)nc32)CC1 [CC-223] | 0.33 | 0.50 | –
0.50 | 0.50 | 0.83 | COc1ccc(-c2nc(N3CCOCC3)c3sc(CN(C)c4ncc(C(=O)NO)cn4)cc3n2)cn1 [CUDC-907] | 1.33 | 0.41 | –
1.10 | 1.00 | 1.01 | O=C1OC(COc2ccccc2[N+](=O)[O-])CC1Cc1ccccc1 (centres unmarked) [Compound 3BDO] | 0.91 | 1.03 | –
– | – | – | CO[C@H]1C[C@@H]2CC[C@@H](C)[C@@](O)(O2)C(=O)C(=O)N2CCCC[C@H]2C(=O)O[C@H]([C@H](C)C[C@@H]2CC[C@@H](OP(C)(C)=O)[C@H](OC)C2)CC(=O)[C@H](C)/C=C(\C)[C@@H](O)[C@@H](OC)C(=O)[C@H](C)C[C@H](C)/C=C/C=C/C=C/1C [Deforolimus] | – | – | Relative PNPLA3 mRNA levels (PNPLA3 mRNA [3]): 0.30 ± 0.10
0.58 | 0.60 | 0.47 | Cc1nc(-c2cn3c(n2)-c2ccc(-c4cnn(C(C)(C)C(N)=O)c4)cc2OCC3)n(C(C)C)n1 [GDC-0032] | 0.61 | 1.05 | –
0.92 | 0.80 | 0.91 | COc1ncc(-c2ccc3nccc(-c4ccnnc4)c3c2)cc1NS(=O)(=O)c1ccc(F)cc1F [GSK2126458] | 0.90 | 0.42 | Relative PINPLA3 mRNA (PNPLA3 mRNA [2]; 1 uM): 0.395; Relative PINPLA3 mRNA (PNPLA3 mRNA [2]; 10 uM): 0.800
0.68 | 0.68 | 0.74 | C[C@H](NC(=O)c1c(N)nn2cccnc12)c1cc2cccc(C#Cc3cnn(C)c3)c2c(=O)n1-c1ccccc1 [IPI-549] | 0.75 | 1.00 | –
0.80 | 1.00 | 0.65 | CO[C@@H](C)Cn1c(=O)n(C)c2cnc3ccc(-c4cncc(C(C)(C)O)c4)cc3c21 [LY3023414] | 0.94 | 0.49 | –
1.10 | 1.20 | 1.04 | O=[N+]([O-])c1ccc(Nc2nc(N3CCOCC3)nc(N3CCOCC3)n2)cc1 [MHY1485] | 0.86 | 0.87 | –
1.57 | 0.97 | 0.69 | Nc1nc2cc(-c3ccc4ncc(C(=O)N5CCOCC5)n4c3)ccc2o1 [MLN1117] | 0.70 | 1.14 | –
0.56 | 0.70 | 0.50 | Nc1cc(C(F)(F)F)c(-c2cc(N3CCOCC3)nc(N3CCOCC3)n2)cn1 [NVP-BKM120 (Hydrochloride)] | 0.43 | 0.70 | –
0.60 | 0.70 | 0.75 | Nc1cc(C(F)(F)F)c(-c2cc(N3CCOCC3)nc(N3CCOCC3)n2)cn1 [NVP-BKM120] | 0.43 | 0.66 | –
0.47 | 0.60 | 0.50 | Nc1cc(C(F)(F)F)c(-c2nc(N3CCOCC3)nc(N3CCOCC3)n2)cn1 [PQR309] | 0.88 | 0.81 | Relative PINPLA3 mRNA (PNPLA3 mRNA [2]; 0.1 uM): 1.353; Relative PINPLA3 mRNA (PNPLA3 mRNA [2]; 0.3 uM): 0.8236; Relative PINPLA3 mRNA (PNPLA3 mRNA [2]; 1 uM): 0.5267; Relative PINPLA3 mRNA (PNPLA3 mRNA [2]; 3 uM): 0.4657; PNPLA3 expression by reported compound specificity (in words) (PNPLA3 mRNA [2]): most robust PNPLA3 inhibition
1.16 | 0.93 | 0.95 | O=c1c(O)c(-c2ccc(O)c(O)c2)oc2cc(O)cc(O)c12 [Quercetin] | 1.11 | 0.94 | –
1.10 | 0.94 | 1.11 | CCOC(=O)C1=C(N)Oc2ccc(Cl)cc2C1C(C#N)C(=O)OCC (centres unmarked) [SC79] | 0.85 | 0.98 | –
– | – | – | Cn1cc(-c2nc(N[C@@H]3CCCC[C@@H]3N)c(F)c3c2C(=O)NC3)cn1 [TAK-659] | – | – | Relative PNPLA3 mRNA levels (PNPLA3 mRNA [2]; Syk pathway inhibitors, 10 μM, human hepatocytes, normalized to B2M, mean of three replicates ± standard deviation): 0.44 ± 0.11; Relative PNPLA3 mRNA levels (PNPLA3 mRNA [3]): 0.31 ± 0.12
0.72 | 0.62 | 0.67 | Cc1nc(-c2cn3c(n2)-c2ccc(-c4cnn(C(C)(C)C(N)=O)c4)cc2OCC3)n(C(C)C)n1 [Taselisib (GDC 0032)] | 0.77 | 1.32 | –
– | – | – | CCn1c(=O)c(-c2cc[nH]n2)cc2c(C)nc(N)nc21 [Voxtalisib] | – | – | Relative PNPLA3 mRNA levels (PNPLA3 mRNA [3]): 0.31 ± 0.08
– | – | – | c1cncc(CN2CCC(n3ncc4c(N5CCOCC5)nc(-c5ccc6[nH]ccc6c5)nc43)CC2)c1 [WAY600] | – | – | Relative PNPLA3 mRNA levels (PNPLA3 mRNA [3]): 0.67 ± 0.21
0.60 | 0.80 | 0.66 | FC(F)c1nc2ccccc2n1-c1nc(N2CCOCC2)nc(N2CCOCC2)n1 [ZSTK474] | 0.68 | 0.71 | –

SMILES | Primary Hepatocytes 4178 PNPLA3 (fold change in mRNA expression) (PNPLA3 mRNA [2]) | Primary Hepatocytes 4282 PNPLA3 (fold change in mRNA expression) (PNPLA3 mRNA [2]) | Primary Hepatocytes 4178 PCSK9 (fold change in mRNA expression) (PCSK9 mRNA) | Primary Stellate cells PNPLA3 (fold change in mRNA expression) (PNPLA3 mRNA [1]) | Primary Stellate cells COL1A1 (fold change in mRNA expression) (COL1A1 mRNA) | further results
CC(C)Oc1ccc(-c2nn([C@@H](C)c3oc4ccc(F)cc4c(=O)c3-c3cccc(F)c3)c3ncnc(N)c23)cc1F [umbralisib (TGR-1202)] | 0.90 | 0.80 | 0.80 | 1.10 | 1.15 | –
